One data set deals with Glucagon (Homo sapiens, UniProt P01275). The data set can be described thus: Entrapment and precipitation of glucagon in SPS particles. The class given is physicochemical. The source says: Synthesis of SPS and Precipitation of Glucagon
These sequences are soluble at very low pH and form microparticles that trap peptides in solution within the particles. They remain intact at pH 3-5 in the vicinity of their isoelectric point. Solubility increases in the physiological pH range.

In another data set the target is Glucose oxidase (Aspergillus niger, UniProt P13006). Briefly: Stabilization and precipitation of glucose oxidase by SPS. The class given is physicochemical.
Setting [1] is: pH of the solution brought to neutral.

The results in this text go back to patent US20120087985A1, “SMALL PEPTIDE SEQUENCES FOR STABILIZING BIOMOLECULES” (Biodel Inc., priority 2010, published 2012).

Sequence of Glucagon (P01275 53-81 limits assumed, species assumed): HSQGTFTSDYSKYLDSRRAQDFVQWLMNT
Sequence of Glucose oxidase (P13006 17-605, species assumed): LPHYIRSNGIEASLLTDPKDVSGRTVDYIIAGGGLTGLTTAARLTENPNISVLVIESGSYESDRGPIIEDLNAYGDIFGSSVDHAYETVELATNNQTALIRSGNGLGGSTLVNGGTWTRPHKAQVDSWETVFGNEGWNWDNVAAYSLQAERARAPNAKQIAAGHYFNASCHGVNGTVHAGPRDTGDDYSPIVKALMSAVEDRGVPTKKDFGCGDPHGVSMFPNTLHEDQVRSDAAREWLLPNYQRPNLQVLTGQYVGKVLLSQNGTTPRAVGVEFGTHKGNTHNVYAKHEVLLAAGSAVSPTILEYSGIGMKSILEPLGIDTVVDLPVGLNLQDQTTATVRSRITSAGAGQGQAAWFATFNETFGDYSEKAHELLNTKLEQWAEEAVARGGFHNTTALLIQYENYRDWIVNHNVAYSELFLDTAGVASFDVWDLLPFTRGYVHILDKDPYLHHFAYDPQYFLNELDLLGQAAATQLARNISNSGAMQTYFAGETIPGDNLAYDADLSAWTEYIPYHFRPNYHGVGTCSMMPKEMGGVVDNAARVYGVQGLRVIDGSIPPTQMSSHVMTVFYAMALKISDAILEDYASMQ

Turning to “H-Aspartic Acid-Tryptophan-Aspartic Acid —OH”, on Glucagon (glucagon entrapped in SPS particles), the “glucagon remained in the particles (entrapment efficiency)” value was “more than 60%”. For the same substance, on Glucagon (in aqueous solution), the stabilization of glucagon entry was “stabilized it in aqueous solution”. For the same substance, on Glucagon (setting [1]), the release of glucagon result was “released the glucagon intact”. Moreover, the “stabilization and precipitation of glucose oxidase” value on Glucose oxidase (in aqueous solution, stored along with insulin glargine at a pH of 4) is “stabilized and precipitated”. The “release of glucose oxidase” value at Glucose oxidase (setting [1]) is recorded as “released intact”.
